Measurements: patent US12528776B2, “Composition and method for treating dermatological disorders using retinamides” (UNIVERSITY OF MARYLAND, Baltimore, priority 2019, dated 2026)
Where two headings read alike, the source gives them in different places.

How the values were obtained:
retinoic acid metabolism = conditions: racemate versus enantiomers; cited from earlier work
[1] = test system: immortalized human sebocytes SZ95; conditions: after 9 days; cited from earlier work
[2] = test system: reconstructed human epidermis (RHE); test: Reconstructed human epidermis (RHE) histology, H and E; assay type: cell-based; conditions: 0.02% topical, 3 days at 37° C.
Description: RHE tissues were treated with indicated concentration and incubated for 3 days at 37° C. Following treatment tissues were fixed, sectioned and stained with H and E. Representative images from three independent experiments are shown in FIG. 5A to 5E. RHE tissues were untreated (FIG. 5A) or treated with vehicle (ethanol) (FIG. SB), ATRA 0.02% solution (FIG. 5C), 13-CRA 0.02% (FIG. 5D); and VNLG-152 0.02% (FIG. 5E). […] In the figures, “SC” refers to “stratum corneum”, “SG” to “stratum granulosum”, “SS” to “stratum spinosum”, and “SB” to “stratum basale”.

[3] = test system: keratin 10 (K10), keratin 19 (K19) and filaggrin expression in RHE cultures; test: RHE immunostaining for K10, K19 and filaggrin; conditions: 0.02% topical, 3 days, immunolabelling
NHAK cells = test: Anti-proliferative effect of ATRA or 13-CRA alone or combined with low-dose VNLG-152; assay type: cell-based, human; conditions: for GI50: Homo sapiens, alone, 0.1 to 10,000 nM, continuous incubation, read-out: GI50, ATRA or 13-CRA alone (Example 2); for fold enhancement of anti-proliferative activity (GI50) by VNLG-152: in combination with 40 nM VNLG-152, NHAK
[4] = test system: adult normal human keratinocytes (NHAKs); test: Growth inhibition (MTT) of adult normal human keratinocytes; assay type: cell-based; conditions: for GI50: Homo sapiens, Keratinocyte; for fold more potent inhibition of growth than 13-CRA (isotretinoin), NHAKs: ratio of GI50 values versus 13-CRA
RARα,β,γ receptors = conditions: significantly less potent than ATRA; cited from earlier work
[5] = test system: SEB-1 human primary sebocytes; test: Growth inhibition (MTT) of SEB-1 sebocytes; assay type: cell-based; conditions: for GI50: Homo sapiens, 168 h, MTT assay, 7 days treatment; for fold more potent inhibition of growth than 13-CRA (isotretinoin), SEB-1: ratio of GI50 values versus 13-CRA
Description: Human adult keratinocytes (pooled) (ZenBio Inc., Research Triangle Park, NC) were cultured in human adult keratinocyte growth medium (KM-2). The SEB-1 human primary sebocytes (ZenBio Inc., Research Triangle Park, NC) were cultured and maintained in sebocyte growth medium. Cells were plated 1 day prior to treatment. Retinamides (VNLG-152 and VNHM-1-73) and other clinically relevant retinoids (13-CRA, 9-CRA, and ATRA) were treated at indicated concentration and time periods and incubated at 37° C. in 5% CO2.
Assays for normal human adult keratinocytes (NHAKs) and human SEB-1 sebocytes growth inhibition were performed as described previously^20. Adult human keratinocytes or sebocytes were treated with VNLG-152,VNHM-1-73 and other retinoids for 7 days. MTT assay was performed at the end of the experiment. Results represent the mean±standard deviation of three independent experiments.

[6] = test system: castration-resistant prostate cancer xenograft; conditions: in vivo; cited from earlier work
NHAK = test: TUNEL (in situ cell death detection) apoptosis assay; assay type: cell-based, human; conditions: 72 hours
Description: (§1) For acridine orange/ethidium bromide (AO/EB) dual staining assay, keratinocytes were treated with indicated concentrations of the compounds for 24.48 and 72 h. At the end of incubation period, 100 μl of 1:1 ratio of acridine orange (0.1%) and ethidium bromide (0.2%) in PBS were added to the cells and incubated at 37° C. and 5% CO2 for 30 min. Cells were then immediately analyzed using Nikon TE2000 fluorescence microscope. Assessment of the apoptotic potential by in situ Cell Death Detection assay was done as per protocol of the manufacturer (Roche Diagnostics).
The apoptosis inducing potential of VNLG-152 was evaluated by TUNEL assay in NHAK. The individual cell lines as indicated were seeded in 8 well chamber slides, and treated with indicated concentrations and times of 13-CRA, ATRA and VNLG-/152. After 72 hours, the plates were analyzed for TUNEL positive staining. Statistical analysis was performed with ANOVA two factor with replication (*P<0.05, **P<0.01, ***P<0.001).

[7] = test system: triple negative breast cancer (TNBC) tumor; conditions: in vivo; cited from earlier work
[8] = test system: mTORC1/4E-BP1/p70SK6 signaling; conditions: cited from earlier work
keratinocytes = test: Acridine orange/ethidium bromide (AO/EB) dual staining apoptosis assay; assay type: cell-based, human; conditions: VNLG-152 0.2 μM, 48 and 72 h; versus 13-CRA and ATRA 5 and 10 μM
Description: as §1
In FIGS. 3A and 3B, the plates were analyzed for early apoptotic and viable cells using acridine orange/ethidium bromide staining. […] In FIG. 3C, the bars are means of three replicate determinations plus standard deviations. Statistical analysis was performed with ANOVA two factor with replication (*P<0.05, **P<0.01, ***P<0.001).

[9] = read-out: GI50 values in inhibiting NHAKs and sebocytes (range over both cell types)
[10] = 168 h, MTT assay, 7 days treatment, read-out: GI50, growth and proliferation of adult keratinocytes (NHAKs)

SMILES: COC(=O)/C=C(C)/C=C/C=C(C)/C=C/C1=C(C)C(n2ccnc2)CCC1(C)C (racemic) [(±)-VN-12-1]
- fold more potent than either pure (4S)-(+)- or (4R)-(−)- enantiomer (retinoic acid metabolism): up to 28 fold

SMILES: CC1=C(/C=C/C(C)=C/C=C/C(C)=C/C(=O)O)C(C)(C)CCC1 [ATRA, all-trans-retinoic acid]
- reduction of proliferation of SZ95 sebocytes [1]: approximately 50%
- RHE morphology after topical treatment [2]: loss of keratohyalin granules in the upper granular layer
- expression of K10 and filaggrin in sb and sg layers of RHE [3]: reduced the expression of these proteins
- GI50 (NHAK cells): 63100 nM
- fold enhancement of anti-proliferative activity (GI50) by VNLG-152 (NHAK cells): 200 fold

SMILES: CC1=C(/C=C/C(C)=C\C=C\C(C)=C\C(=O)O)C(C)(C)CCC1 [Compound 9-CRA, 9-cis-retinoic acid]
- reduction of proliferation of SZ95 sebocytes [1]: approximately 50%

SMILES: CC1=C(/C=C/C(C)=C/C=C/C(C)=C\C(=O)O)C(C)(C)CCC1 [Compound 13-CRA, 13-cis-retinoic acid]
- reduction of proliferation of SZ95 sebocytes [1]: approximately 50%
- RHE morphology after topical treatment [2]: loss of keratohyalin granules in the upper granular layer
- GI50 [4, 9]: 26000 to 96400 nM
- GI50 (NHAK cells): 75800 nM
- fold enhancement of anti-proliferative activity (GI50) by VNLG-152 (NHAK cells): 123 fold

SMILES: CC1=C(/C=C/C(C)=C/C=C/C(C)=C/C(=O)O)C(C)(C)CCC1n1ccnc1 (centres unmarked) [VN/14-1]
- RAR binding and activation (RARα,β,γ receptors): binds and activates the RARα,β,γ receptors

SMILES: CC1=C(/C=C/C(C)=C/C=C/C(C)=C\C(=O)NCc2ccc(O)cc2)C(C)(C)CCC1n1ccnc1 (centres unmarked) [VNHM-1-73, (2Z,4E,6E,8E)-9-(3-(1H-imidazol-1-yl)-2,6,6-trimethylcyclohex-1-en-1-yl)-N-(4-hydroxybenzyl)-3,7-dimethylnona-2,4,6,8-tetraenamide]
- GI50 [4, 10]: 1280 nM
- fold more potent inhibition of growth than 13-CRA (isotretinoin), NHAKs [4]: 59.3 fold
- GI50 [5]: 467 nM
- fold more potent inhibition of growth than 13-CRA (isotretinoin), SEB-1 [5]: 85 fold

SMILES: CC1=C(/C=C/C(C)=C/C=C/C(C)=C/C(=O)Nc2ccc(F)cc2)C(C)(C)CCC1n1ccnc1 (centres unmarked) [VNLG-152]
- effect on castration-resistant prostate cancer xenograft growth [6]: suppress EMT and castration-resistant prostate cancer xenograft growth
- induction of apoptosis versus control (TUNEL) (NHAK; 0.2 μM): ~50%
- induction of apoptosis (TUNEL) (NHAK; 1 μM): ~84%
- effect on TNBC tumor growth and metastasis [7]: potently inhibits triple negative breast cancer (TNBC) tumor growth and metastasis
- RHE morphology after topical treatment [2]: loss of keratohyalin granules in the upper granular layer
- GI50 [4, 10]: 239 nM
- GI50 [4, 9]: 66 to 239 nM
- fold more potent inhibition of growth than 13-CRA (isotretinoin), NHAKs [4]: 317.4 fold
- inhibition of mTORC1 signaling [8]: potently inhibits mTORC1/4E-BP1/p70SK6 signaling
- expression of K10 and filaggrin in sb and sg layers of RHE [3]: reduced the expression of these proteins
- anti-proliferative effect at low dose (NHAK cells; 40 nM VNLG-152 alone, NHAK): < 10%
- pro-apoptotic effect, AO/EB dual staining (keratinocytes): strong pro-apoptotic effects
- GI50 [5]: 66 nM
- fold more potent inhibition of growth than 13-CRA (isotretinoin), SEB-1 [5]: 603 fold
- times more potent than 13-CRA in reducing the growth of SEB-1 sebocytes ([5]; versus 13-CRA): about 35 times
